Measured values published in patent US20170252362A1, “METHODS & COMPOUNDS USEFUL IN HEMATOPOIETIC STEM CELL MEDICINE” (ECOLE POLYTECHNIQUE FEDERALE DE LAUSANNE (EPFL), priority 2014, published 2017).

Key:
[1] = tested on: hematopoietic stem and progenitor pool sizes in the bone marrow; assay: Flow cytometry analysis of hematopoietic stem and progenitor pool sizes in bone marrow of mice fed the agent; format: in vivo, mouse; conditions: for number of hematopoietic stem cells (ST-HSC / most primitive HSC) by flow cytometry: Example 8, one week treatment, FIG. 9A
Description: Bone marrow (BM) cells were isolated from C57Bl/6J and C57Bl/6J Ly5.1 from crushed femora and tibia. Flow cytometry analysis of hematopoietic stem and progenitor cells was performed on freshly isolated bone marrow (BM). Cell suspensions were filtered through a 70 μm cell strainer and erythroid cells were eliminated by incubation with red blood cells lysis buffer (eBioscences). Lineage-positive cells were removed with a magnetic lineage depletion kit (Miltenyi Biotech). Cell suspensions were stained with a panel of specific antibodies for stem and progenitor cells and analyzed or FACS-sorted respectively on a BD LSRII and BD FACS Aria II.
(§1) C57Bl/6J and C57Bl/6J Ly5.1 were purchased from Charles River Laboratories International and maintained in micro-isolator cages. Mice were provided continuously with sterile food, water and bedding. Nicotinamide riboside (NR) (custom synthesized as triflate salt by Novalix in Strasbourg) was supplied in the food at 0.4 g/Kg mouse and mice were treated for 1 and 4 weeks respectively.

[2] = tested on: hematopoietic progenitor compartments; assay: Colony-forming functional assay (CFUs, Methocult) on BM derived from agent-treated mice; format: in vivo, mouse
[3] = tested on: human hematopoiesis; assay: Human hematopoiesis in humanized NSG mice fed NR-supplemented diet; format: in vivo, human CD34+ cells in NSG mice; conditions: supplemented diet for one week
Text: NOD scid gamma (NSG) mice which are a mouse strain NOD Cg-Prkdcscid Il2rgtm1Wjl/SzJ (005557) which correspond to a mutant mouse which combines the features of the NOD/ShiLtJ background (conferring a number of deficiencies in innate immunity), the severe combined immune deficiency mutation (SCID) and an IL2 receptor gamma chain deficiency which disables cytokine signaling, were purchased from The Jackson Laboratory and bred, treated, and maintained under pathogen-free conditions in-house. New-born NSG mice were irradiated with 1Gy and 6 hours later injected intra-hepatically (IH) with 10e6 human CD34 HSCs (purified CD34+ from mobilized blood, Cellsystems Biotechnologie GmbH, Troisdorf, DE). The level of human reconstitution (% of human CD45+ cells) was analyzed 12 weeks later by FACS staining of tail vein blood samples. […] From the following day one cohort was given low fat food supplemented with NR as compared to the group treated with NA or Acipimox (n=10-12 mice/group), as indicated above, and the other cohort was given control diet. After seven days, tail vein blood was collected in EDTA tubes and mice sacrificed. Bone marrow cells were collected as described for C57BL6 mice, and both blood and bone marrow cells stained and analyzed for a panel of human lineage specific antibodies as described. […]

[4] = tested on: HSCs; assay: Single cell proliferation kinetics and division synchrony by time-lapse microscopy; format: cell-based, mouse; conditions: single cell level
Description: Furthermore, at single cell level the effect of NR on cell proliferation kinetics was determined as described previously ([…] et al., 2012, supra). […] To follow the behavior of HSCs at single cell level, cells were sorted directly into 96-well plates coated with microwell arrays. Microwells containing a single cell at the time of plating were tracked by time-lapse microscopy. Proliferation kinetics were assessed using a Zeiss Axio Observer microscope equipped with an incubator chamber, temperature and CO2 control. Images were automatically acquired every three hours over five days using the imaging analysis software of MetaMorph (Visitron, Germany). Hydrogel microwell arrays were directly casted within individual wells of a 96-well plate as described (Kobel et al., 2009, Langmuir, 25(15):8774-9; Lutolf et al., 2009, Integr Biol (Camb), 1(1):59-69). Briefly, stoichiometrically balanced aqueous solutions of multi-arm poly(ethylene glycol) (PEG), end-functionalized with thiol and vinylsulfone groups were mixed and molded against a PDMS microstamp. Upon completion of crosslinking, the stamp was removed and the hydrogel microwell array was hydrated overnight at 4° C. and then sterilized with ultraviolet light.

[5] = tested on: HSC activity of donor bone marrow; assay: Transplantation of BM derived from agent-treated donor mice (engraftment, blood chimerism); format: in vivo, mouse; conditions: for short-term HSC activity of transplanted BM from treated donors (blood chimerism): Example 8, FIG. 9C, compared to control group
Text: Therefore, NR-treatment is not expected to exhaust the LT-HSC population, which is often the problem when increasing short-term HSCs and their progeny.

[6] = tested on: blood recovery and survival of transplanted mice; assay: Survival and blood recovery of lethally irradiated, transplanted mice treated with the agent; format: in vivo, mouse; conditions: for blood recovery of post-transplanted mice (platelets, granulocytes/neutrophils): Example 8, FIG. 9D, treated recipients versus control
Description: Given the dependency of differentiated hematopoietic cells to the progenitor compartments, the effect of a mitochondrial membrane potential reducing agent according to the invention, in particular NR, in improving blood recovery and survival of transplanted mice was assessed. Peripheral blood count started at day 13 after transplantation, and it was repeated every 3 or 4 days.
as §1

[7] = tested on: HSC mitochondrial activity; assay: In vivo assay of HSC mitochondrial activity: TMRM flow cytometry of freshly isolated HSC from mice fed the compounds; parameters: species or system mouse
Text: The effect of agents on HSC mitochondrial activity has been assessed by measuring mitochondrial activity in vivo: freshly isolated HSC from mice fed with the compounds were stained by TMRM and analyzed by flow cytometry.

[8] = tested on: HSC mitochondrial activity; assay: In vitro HSC mitochondrial activity with JC1 and TMRM dyes; format: cell-based, mouse
Text: The effects of NR on HSC mitochondrial activity has been assessed by measuring mitochondrial activity using JC1 (Mantel et al., 2010, Cell Cycle, 9(10), 2008-17) and TMRM dyes (Vannini et al., 2015, in preparation; Nakada et al., 2010, Nature, 468, 653-658).
The effect of agents on HSC mitochondrial activity has been assessed by measuring mitochondrial activity as described in Example 7 above.

[9] = tested on: HSCs; assay: In vivo activation of HSC by IFN-α, cell cycle (Ki67) and ΔΨm analysis; parameters: species or system mouse
Description: In order to verify this hypothesis, cell cycle phase analyses were performed using Ki67 and Hoechst staining as described below on freshly isolated HSCs that were separated into low and high ΔΨm. […] Under homeostatic conditions, quiescent state, corresponding to ca. 70% of cells, and cycling HSCs have indistinguishable ΔΨm profiles.
A similar analysis was performed on HSCs that were activated to exit dormancy directly in vivo using interferon-alpha (IFN-α) treatment of mice (Essers et al., 2009, Nature 458, 904-908) through subcutaneous injections of IFN-α carried out 48 and 24 hours prior to cell isolation.
HSC were activated to exit dormancy by interferon-alpha (IFN-α) treatment following published protocols (Essers et al., 2009, supra). Briefly, subcutaneous injections in C57B1/6J mice were carried out with 10,000 U of IFN-α (R&D systems) 48 and 24 hours prior to bone marrow extraction. Control mice were injected with an equivalent volume of the vehicle (PBS+0.1% BSA).

[10] = tested on: cultured HSCs; conditions: flow cytometry
Description: NADH autofluorescence was measured by flow cytometry with UV laser (ex: 350 nm, em: 460 nm).
Specifically, culture conditions that would rapidly differentiate HSCs into highly proliferative MPPs were chosen and the effect of blocking the establishment of ΔΨm on the maintenance of stemness was investigated. For that purpose, trifluorocarbonylcyanide phenylhydrazone (FCCP) which permeabilizes the inner mitochondrial membrane and disrupts its potential was used as an uncoupling agent of the electron transport from ATP generation.

[11] = tested on: LT-HSC:TMRM^low cells; conditions: 100 LT-HSC:TMRM^low cells, two days differentiation conditions with FCCP
Description: (§2) HSCs were cultured under ‘expansion’ conditions in U-bottom 96-well plates for five days. Cultures were maintained in Stemline II (Sigma) supplemented with 10 μg/ml Heparin (Sigma), 100 ng/ml SCF (R&D Systems), 2 ng/ml Flt3 ligand (R&D), 20 ng/ml TPO (R&D Systems), 10 ng/ml FGF-1 (Invitrogen), 500 ng/ml IGFBP2 (R&D Systems), 100 ng/ml AngL-3 (R&D Systems). At the end of the culture period cells were stained with TMRM and analyzed or sorted by flow cytometry. To induce differentiation, HSCs were cultured in basal medium (Stemline II containing 100 ng/ml SCF and 2 ng/ml Flt3 ligand) supplemented with 20 ng/ml IL-3 (R&D Systems) and 100 ng/ml IL-6 (R&D Systems).
(§3) In a first series of experiments, quantitative clonal differentiation assays (short- and long-term colony forming unit (CFU) assays as described above) were used to test to which extent mitochondrial uncoupling could influence the colony forming behavior and efficiency of hematopoietic stem and progenitor cells (FIG. 4A-C).
(§4) For some experiments, 5 or 10 μM Carbonyl cyanide 4-(trifluoromethoxy) phenylhydrazone (FCCP) (Sigma) was added at the medium. FCCP stock solution was prepared by dissolving the powder in ethanol at 10 mM concentration.

[12] = tested on: whole bone marrow cells; conditions: differentiation conditions, two days with FCCP
Description: as §2, §3, §4

[13] = tested on: HSCs; conditions: CFSE labeling, culture with FCCP
Description: Freshly sorted LT-HSCs were incubated for 20 min at 37° C. with 1:400 CFSE stock solution (Cayman chemicals; CFSE cell division assay kit). The cells were pelleted and re-suspended in 1 ml of Stemline II (Sigma) containing 10% FBS for 20 min at 37° C. Thereafter, the cells were washed twice with 1 ml of Stemline II (Sigma) and put in culture.

[14] = tested on: LT-HSC:TMRM^low cells; conditions: five days differentiation condition (SCF, Flt3, IL-3, IL-6), 5 μM FCCP, progeny transplanted
Description: 100 LT-HSC:TMRM^low cells were cultured for five days under differentiation-inducing conditions in the presence or absence of 5 μM FCCP. Cell progeny were transplanted in lethally irradiated recipient mice together with 2*10^6 helper cells. Peripheral blood was collected at 4, 8 and 12 and 16 weeks to determine the level of chimerism as described above.
For transplants of HSC cultured exposed to the uncoupler FCCP, 100 LT-HSC:TMRM^low cells were cultured for five days under differentiation-inducing conditions in the presence or absence of 5 μM FCCP. Cell progeny were transplanted in lethally irradiated recipient mice together with 2*10^6 helper cells. Peripheral blood was collected at 4, 8 and 12 weeks to determine the level of chimerism.

Molecule: NC(=O)c1ccc[n+]([C@@H]2O[C@H](CO)[C@@H](O)[C@H]2O)c1 [NR, nicotinamide riboside]
- hematopoietic stem and progenitor compartments in BM ([1]; 1 week treatment through the food, flow cytometry): increased cellularity is observed in all hematopoietic progenitor compartments
- hematopoietic progenitor compartments in BM ([1]; 4 weeks treatment through the food, flow cytometry): only the short-term compartment (ST-HSC) is expanded
- number of hematopoietic stem cells (ST-HSC / most primitive HSC) by flow cytometry [1]: expanded ST-HSC compartment
- HSC pool ([1]; short- and long-term treatment): not accompanied by a reduction of the HSC pool
- colonies in CFUs assay from BM of treated mice ([2]; 1 and 4 weeks treatment, especially short-term treated mice): confirmed the expansion of hematopoietic progenitor compartments
- lineage of most striking colony increase ([2]; CFUs from BM of treated mice): most striking in the Mk lineage
- progenitor population / total and myeloid colonies in CFUs from BM of treated mice ([2]; Example 8, FIG. 9B): expanded progenitor population
- human lymphocyte production [3]: significant increase in lymphocyte production
- human monocyte production [3]: trend towards increased monocyte production
- asynchronous division [4]: significant increase in asynchronous division
- proliferation kinetics [4]: do not have a major change in their proliferation kinetics
- engraftment of BM derived from treated mice ([5]; 1-month treated donor mice, transplantation assay): do not show engraftment advantage
- short-term HSC activity of transplanted BM from treated donors (blood chimerism) [5]: higher ST-HSC activity
- blood recovery of post-transplanted mice (platelets, granulocytes/neutrophils) [6]: faster exit of neutropenia and thrombocytopenia
- survival of transplanted mice ([6]; limiting-dose transplanted mice, all untreated mice died within one month): 80%
- exit of neutropenia (neutrophils >0.5 G/l) relative to controls ([6]; transplanted mice, on average): one week before controls
- recovery from severe thrombocytopenia (platelet count >100 G/l) earlier relative to control mice ([6]; transplanted mice, on average): 10 days
- neutrophil and platelet recovery ([6]; transplanted mice, peripheral blood counts from day 13): faster neutrophil and platelet recovery
- number of short-term HSCs with low mitochondrial activity ([7]; freshly isolated HSC from fed mice, TMRM, FIG. 12): able to push the number of short-term HSCs with low mitochondrial activity very significantly
- mitochondrial activity of HSCs ([8]; HSCs exposed in vitro, JC1 and TMRM): robust decrease in mitochondrial activity
- proportion of cells with low mitochondrial activity ([8]; dividing HSCs in vitro): raised the proportion of cells with low mitochondrial activity
- percentage of cells with high mitochondrial activity ([8]; in vitro, compared to control conditions): reduces the percentage of cells with high mitochondrial activity to half
- percentage of HSC daughters that maintain a low mitochondrial activity ([8]; in vitro, control about 5%): about 10%

Molecule: IFN-α
- ΔΨm levels of quiescent versus cycling HSCs ([9]; after IFN-α treatment, MitoTracker Deep Red): not significantly different
- number of cycling (Ki67+) HSCs ([9]; subcutaneous injections 48 and 24 hours prior to cell isolation, control ca. 30): ~50%

Molecule: Cc1cnc(C(=O)O)c[n+]1[O-] [Acipimox, acipimox, reference compound]
- short-term HSC activity of transplanted BM from treated donors (blood chimerism) [5]: no significant difference
- blood recovery of post-transplanted mice (platelets, granulocytes/neutrophils) [6]: slower platelet and granulocyte recovery

Molecule: N#CC(C#N)=NNc1ccc(OC(F)(F)F)cc1 [FCCP, Carbonyl cyanide 4-(trifluoromethoxy)phenylhydrazone]
- NADH levels [10]: decreased NADH levels
- colonies derived from the most primitive cells (CFU-GEMM) [11]: concomitant increase
- frequency of colonies derived from the more committed progenitors (Mk, G, M and GM) [11]: striking decrease in the frequency of colonies
- total number of colonies ([12]; 15'000 whole bone marrow cells): striking decrease in the total number of colonies
- percentage of clonogenic multi-lineage colonies (CFU-GEMMs) ([12]; whole bone marrow cells): increase in the percentage of clonogenic multi-lineage colonies
- percentage of colonies derived from more committed progenitors (M, GM) ([12]; whole bone marrow cells): markedly decreased
- divisional history (induction of quiescence) [13]: all cells in culture are rapidly dividing several times
- long-term multilineage blood reconstitution in recipient mice [14]: dramatically higher levels of long-term multilineage blood reconstitution

Molecule: O=C(O)c1cccnc1 [NA, nicotinic acid, reference compound]
- number of hematopoietic stem cells (ST-HSC / most primitive HSC) by flow cytometry [1]: do not show a significant difference
- Megakaryocytes (MkE) colonies ([2]; Example 8, FIG. 9B): reduction of Megakaryocytes (MkE) colonies
- progenitor population / total and myeloid colonies in CFUs from BM of treated mice ([2]; Example 8, FIG. 9B): do not show a significant difference in total and myeloid colonies
- ability to reduce mitochondrial membrane potential in HSCs ([7]; mice fed with the compounds): not able to significantly reduce mitochondrial membrane potential in HSCs
